In paper PMC6099690, “TRPA1 Modulating C14 Polyacetylenes from the Iranian Endemic Plant Echinophora platyloba” (Molecules : A Journal of Synthetic Chemistry and Natural …, 2018):

How the values were obtained:
[1] = biological target: T1, rat TRPA1 (Rattus norvegicus, UniProt Q6RI86); assay: Calcium influx (Fluo-4 fluorimetric) agonist assay in HEK293 cells transfected with rTRPA1; assay type: cell-based; settings: for EC50: half-maximal increase in [Ca2+]i, read-out: Potency EC50; for Efficacy: maximum [Ca2+]i elevation as % of allylisothiocyanate (AITC) at 100 μM
T1 construct: expressed in transfected cells
Experimental: (§1) HEK-293 cells stably over-expressing recombinant rat TRPA1, TRPM8, TRPV2-4, TRPM8 or human TRPV1 were selected by Geneticin 600 μg mL^−1, grown on 100-mm diameter Petri dishes as monolayers in minimum essential medium supplemented with non-essential amino acids, 10% fetal bovine serum, and 2 mM glutamine, and maintained under 5% CO2 at 37 °C. Stable expression of each channel was checked by quantitative real time-PCR. The effect of the substances on intracellular Ca^2+ concentration [Ca^2+]i was determined using Fluo-4, a selective intracellular fluorescent probe for Ca^2+. Toward this aim, on the day of the experiment, cells over-expressing the TRP channels were loaded for 1 h in the dark at room temperature with the methyl ester Fluo4-AM (4 μM in DMSO containing 0.02% Pluronic F-127, Invitrogen, Carlsbad, CA, USA) in minimum essential medium without fetal bovine serum. After the loading, cells were washed twice in Tyrode’s buffer (145 mM NaCl, 2.5 mM KCl, 1.5 mM CaCl2, 1.2 mM MgCl2, 10 mM D-glucose, and 10 mM HEPES, pH 7.4), re-suspended in Tyrode’s buffer, and transferred (about 100,000 cells) to the quartz cuvette of the spectrofluorimeter (Perkin-Elmer LS50B; PerkinElmer Life and Analytical Sciences, Waltham, MA, USA) under continuous stirring. [Ca^2+]i was determined before and after the addition of various concentrations of test compounds by measuring cell fluorescence at 25 °C (λEX = 488 nm, λEM = 516 nm). Curve fitting (sigmoidal dose-response variable slope) and parameter estimation were performed with GraphPad Prism® (GraphPad Software Inc., San Diego, CA, USA). Potency was expressed as the concentration of test substances exerting a half-maximal agonist effect (i.e., half-maximal increases in [Ca^2+]i (EC50), calculated by using GraphPad®. The efficacy of the agonists was first determined by normalizing their effect to the maximum Ca^2+ influx effect on [Ca^2+]i observed with application of 4 μM ionomycin (Sigma, St. Louis, MO, USA). The increases in fluorescence in wild-type HEK293 cells (i.e., not transfected with any construct) were used as baseline and subtracted from the values obtained from transfected cells. The effects of TRPA1 agonists are expressed as a percentage of the effect obtained with 100 μM allyl isothiocyanate (AITC). Antagonist/desensitizing behavior was evaluated for TRPA1 by adding the test compounds in the quartz cuvette 5 min before stimulation of cells with the agonist AITC (100 μM). Data are expressed as the concentration exerting a half maximal inhibition of agonist-induced [Ca^2+]i elevation (IC50), which was calculated again using GraphPad Prism® software. The effect on [Ca^2+]i exerted by agonist alone was taken as 100%. Dose-response curves were fitted by a sigmoidal regression with variable slope. All determinations were at least performed in triplicate. Statistical analysis of the data was performed by analysis of variance at each point using ANOVA followed by Bonferroni’s test.

[2] = biological target: T1, rat TRPA1; assay: Antagonist/desensitizing assay: inhibition of AITC (100 μM)-induced [Ca2+]i elevation in rTRPA1-HEK293 cells; assay type: cell-based; settings: compound added 5 min before stimulation with AITC 100 μM; HEK293 cells transfected with rTRPA1; read-out: IC50 inh TRPA1 (AITC 100 μM)
Experimental: as §1, with “Potency was expressed as the concentration of test substances exerting a half-maximal agonist effect (i.e., half-maximal increases in [Ca^2+]i (EC50), calculated by using GraphPad®. The efficacy of the agonists was first determined by normalizing their effect to the maximum Ca^2+ influx effect on [Ca^2+]i observed with application of 4 μM ionomycin (Sigma, St. Louis, MO, USA). The increases in fluorescence in wild-type HEK293 cells (i.e., not transfected with any construct) were used as baseline and subtracted from the values obtained from transfected cells. The effects of TRPA1 agonists are expressed as a percentage of the effect obtained with 100 μM allyl isothiocyanate (AITC).” left out, “The effect on [Ca^2+]i exerted by agonist alone was taken as 100%. Dose-response curves were fitted by a sigmoidal regression with variable slope. All determinations were at least performed in triplicate. Statistical analysis of the data was performed by analysis of variance at each point using ANOVA followed by Bonferroni’s test.” left out

T1 sequence (Q6RI86 whole entry): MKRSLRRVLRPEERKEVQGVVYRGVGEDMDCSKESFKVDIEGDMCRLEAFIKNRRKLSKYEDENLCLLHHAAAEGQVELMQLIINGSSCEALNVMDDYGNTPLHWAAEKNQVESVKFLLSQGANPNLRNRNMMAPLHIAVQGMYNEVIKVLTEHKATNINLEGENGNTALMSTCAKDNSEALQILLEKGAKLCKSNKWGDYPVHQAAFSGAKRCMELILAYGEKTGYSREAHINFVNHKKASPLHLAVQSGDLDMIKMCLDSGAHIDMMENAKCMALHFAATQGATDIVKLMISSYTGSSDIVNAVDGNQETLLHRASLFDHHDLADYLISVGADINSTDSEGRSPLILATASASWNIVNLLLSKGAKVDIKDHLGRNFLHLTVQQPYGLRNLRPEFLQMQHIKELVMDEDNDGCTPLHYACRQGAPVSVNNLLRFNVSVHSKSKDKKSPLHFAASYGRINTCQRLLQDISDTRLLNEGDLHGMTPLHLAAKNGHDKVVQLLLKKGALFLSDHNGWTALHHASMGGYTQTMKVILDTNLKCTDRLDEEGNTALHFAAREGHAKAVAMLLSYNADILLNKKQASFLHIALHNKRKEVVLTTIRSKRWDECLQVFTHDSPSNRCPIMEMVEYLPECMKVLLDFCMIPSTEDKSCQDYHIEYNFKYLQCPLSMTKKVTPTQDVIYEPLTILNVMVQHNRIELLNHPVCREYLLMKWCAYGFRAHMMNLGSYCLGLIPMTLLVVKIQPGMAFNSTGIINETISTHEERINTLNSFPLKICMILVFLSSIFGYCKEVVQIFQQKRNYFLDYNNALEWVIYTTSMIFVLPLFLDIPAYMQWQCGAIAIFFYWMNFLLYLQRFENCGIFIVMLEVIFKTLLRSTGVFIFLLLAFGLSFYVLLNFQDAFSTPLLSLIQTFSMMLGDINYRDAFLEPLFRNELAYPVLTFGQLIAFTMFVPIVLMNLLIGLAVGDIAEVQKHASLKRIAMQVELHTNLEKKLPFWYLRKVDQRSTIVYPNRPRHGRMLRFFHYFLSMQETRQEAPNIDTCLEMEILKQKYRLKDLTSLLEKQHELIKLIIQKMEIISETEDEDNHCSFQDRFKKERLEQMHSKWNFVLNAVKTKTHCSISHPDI

## CC#CC#CC#CCCc1cccc(=O)o1 [Echinophorin D (3), echinophorin D]
[1]
  EC50: 30.9 ± 2.8 µM
  Efficacy: 51.7 ± 1.3 % AITC
[1]; listed as 3
  Efficacy: about 52 % AITC
[2]
  IC50: 87 ± 1.5 µM

## C/C=C\C#CC#CCCc1cccc(=O)o1 [Echinophorin B (4), echinophorin B]
[1]
  EC50: 25 ± 3 µM
  Efficacy: 82.0 ± 2.8 % AITC
[1]; listed as 4
  Efficacy: about 80 % AITC
[2]
  IC50: 37.2 ± 0.8 µM

## CCCC#CC#CCCc1cccc(=O)o1 [Echinophorin A (5), echinophorin A]
[1]
  EC50: 20.3 ± 3.2 µM
  Efficacy: 81.0 ± 3.3 % AITC
[1]; listed as 5
  Efficacy: about 80 % AITC
[2]
  IC50: 45.7 ± 3.5 µM
